The source of these data is US10363239B2, “Method for inhibiting growth of cancer cells” (Pain Therapeutics, Inc., priority 2013, dated 2019).

Assay [1] addresses FLNA pentapeptide of SEQ ID NO: 1 (Bn-VAKGL) (Homo sapiens, UniProt P21333). Briefly: FITC-NLX-based FLNA screening assay (inhibition of FITC-naloxone binding to Bn-VAKGL on streptavidin plates). Particulars: 10 nM FITC-NLX, read-out: Percent Binding Inhibition; for inhibition at 0.01 µM: FLNA-binding compound 0.01 μM; for inhibition at 0.1 µM: FLNA-binding compound 0.1 μM; for inhibition at 1 µM: FLNA-binding compound 1 μM.

The next assay concerns mu opiate receptor (MOR). The experiment in a line: MOR agonist activity using [35S]GTPγS binding assay in striatal membranes. The format is biochemical. An outline of the steps:
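Striatal membranes (200 μg) were preincubated 5 min at 30 °C in HEPES pH 7.5 with 100 mM NaCl, 1 mM MgCl2 and 0.5 nM [35S]GTPγS, then 5 min more with 0.1–10 μM compound. Gαo was immunoprecipitated and bound radioactivity counted by scintillation.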

The next assay relates to adrenergic α1 receptors. The experiment in a line: Standard receptor binding assay. Particulars: 10 μM concentration.
A further assay has as its target sigma σ1 receptor (Homo sapiens, UniProt Q99720). The experiment in a line: Standard receptor binding assay. Particulars: 10 μM concentration.
The subject of assay [2] is BxPC3 pancreatic cancer cell implants. The experiment in a line: Xenograft tumor size study. The conditions noted are these: gemcitabine at 50 mg/kg i.p. b.i.d.
Assay [3] deals with biotinylated pentapeptide (Bn-VAKGL) of SEQ ID NO: 1 (Homo sapiens, UniProt P21333). Briefly: Inhibition of [3H]NLX binding to biotinylated pentapeptide (Bn-VAKGL). The conditions noted are these: read-out: IC50, inhibition of [3H]NLX binding to Bn-VAKGL; single affinity state.
Text: Data are derived from 6 studies, each using a different set of A7 cells.

sigma σ1 receptor, sequence (Q99720 whole entry): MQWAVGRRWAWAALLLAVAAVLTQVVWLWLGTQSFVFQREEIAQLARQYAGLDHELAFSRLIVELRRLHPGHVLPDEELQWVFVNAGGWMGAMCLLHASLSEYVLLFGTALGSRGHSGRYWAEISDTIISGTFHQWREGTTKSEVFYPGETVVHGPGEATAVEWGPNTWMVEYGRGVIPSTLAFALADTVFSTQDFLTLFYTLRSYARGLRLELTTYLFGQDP

On to `COc1ccc(S(=O)(=O)N2CCOC23CCNCC3)cc1` [Compound C0027], for which, in assay [1], the inhibition at 0.01 µM turned out to be 50.8%. For the same compound, in assay [1], the inhibition at 0.1 µM is 61.2%. In addition, in assay [1], the inhibition at 1 µM was found to be 63.8%. In the assay with mu opiate receptor (MOR) (Series C-2, 0.1 μM compound, relative to DAMGO), the “% DAMGO (0.1 μM)” value stood at 121.3%. The “MOR agonist activity, percent [35S]GTPγS binding at the stated compound concentration” value with mu opiate receptor (MOR) (Series C-2, 0.1 μM compound, [35S]GTPγS binding to Gαo, striatal membranes) is on record as 233.2%; in the assay on mu opiate receptor (MOR) (Series C-2, 1 μM compound + 1 μM β-FNA), 72.2%; in the assay with mu opiate receptor (MOR) (Series C-2, 1 μM compound, [35S]GTPγS binding to Gαo, striatal membranes), 313.9%. Besides, in the assay on mu opiate receptor (MOR) (Series C-2, 1 μM compound + β-FNA, relative to DAMGO + BFNA), the “% DAMGO + BFNA” value was 164.5%. For the same compound, the “% DAMGO (1 μM)” value with mu opiate receptor (MOR) (Series C-2, 1 μM compound, relative to DAMGO) was 115.0%. Also, the “Activity at adrenergic α1 receptors” value in the assay on adrenergic α1 receptors is recorded as “antagonist”. In addition, the “Activity at sigma σ1 receptor” value on sigma σ1 receptor is reported as “antagonist”.

On to `CC1CN(CC(O)COc2cccc(F)c2)CC(C)O1` (centres unmarked) [Compound A0049], for which, in assay [1], the inhibition at 0.01 µM is 46.2%, the inhibition at 0.1 µM was found to be 49.4% and the inhibition at 1 µM stood at 49.3%. Moreover, the “MOR agonist activity ([35S]GTPγS binding), FLNA-Binding Compound as Agonist 0.1 μM” value with mu opiate receptor (MOR) (0.1 μM compound) is 232.3%. For the same compound, in the assay with mu opiate receptor (MOR) (0.1 μM compound relative to DAMGO), the “% DAMGO (0.1 μM)” value is on record as 118.4%. The “MOR agonist activity ([35S]GTPγS binding), FLNA-Binding Compound as Agonist 1 μM” value in the assay with mu opiate receptor (MOR) (1 μM compound) was determined as 370.3%. The “MOR agonist activity ([35S]GTPγS binding), FLNA-Binding Compound as Agonist 1 μM + BFNA” value in the assay with mu opiate receptor (MOR) (1 μM compound + 1 μM β-funaltrexamine) amounted to 107.1%. In addition, in the assay with mu opiate receptor (MOR) (1 μM compound + BFNA relative to DAMGO + BFNA), the “% DAMGO + BFNA” value turned out to be 144.9%. Further, in the assay on mu opiate receptor (MOR) (1 μM compound relative to DAMGO), the “% DAMGO (1 μM)” value is recorded as 134.2%. In addition, the “Activity at sigma σ1 receptor” value on sigma σ1 receptor is recorded as “antagonist”.

Regarding `Nc1ccn([C@@H]2O[C@H](CO)[C@@H](O)C2(F)F)c(=O)n1` [gemcitabine], the Tumor growth result in assay [2] is listed as “slowed growth but did not shrink BxPC3 xenograft tumors”.

Regarding `O=C1CC[C@@]2(O)[C@H]3Cc4ccc(O)c5c4[C@@]2(CCN3CC2CC2)[C@H]1O5` [Naltrexone], in assay [3], the 50% inhibitory concentration (IC50) worked out at 0.043 nM.
